In ChEMBL document CHEMBL6153091, “Cytotoxic Stilbenoids, Hetero- and Homodimers of Homoisoflavonoids from Prospero autumnale” (J Nat Prod, 2025):
The source made the active and inactive calls.

Tests used:
Assay type in all cases: functional, cell-based
[1] = tested on: MDA-MB-231; assay: Induction of apoptosis in human MDA-MB-231 cells at IC50 concentration incubated for 48 hrs by Annexin V-FITC/PI staining based flow cytometry
[2] = tested on: MDA-MB-231; assay: Induction of cell cycle arrest in human MDA-MB-231 cells assessed as decrease in accumulation of cells at G2/M phase incubated for 48 hrs by flow cytometry
[3] = tested on: LoVo; assay: Induction of cell cycle arrest in human LoVo cells assessed as accumulation of cells at S phase incubated for 48 hrs by flow cytometry
[4] = tested on: LoVo; assay: Induction of cell cycle arrest in human LoVo cells assessed as decrease in accumulation of cells at G2/M phase incubated for 48 hrs by flow cytometry
[5] = tested on: LoVo; assay: Induction of necrosis in human LoVo cells at IC50 concentration incubated for 48 hrs by Annexin V-FITC/PI staining based flow cytometry
[6] = tested on: MDA-MB-231; assay: Induction of cell cycle arrest in human MDA-MB-231 cells assessed as accumulation of cells at S phase incubated for 48 hrs by flow cytometry
[7] = tested on: LoVo; assay: Induction of apoptosis in human LoVo cells at IC50 concentration incubated for 48 hrs by Annexin V-FITC/PI staining based flow cytometry
[8] = tested on: MDA-MB-231; assay: Induction of necrosis in human MDA-MB-231 cells at IC50 concentration incubated for 48 hrs by Annexin V-FITC/PI staining based flow cytometry
[9] = tested on: PC-3; assay: Induction of necrosis in human PC-3 cells at IC50 concentration incubated for 48 hrs by Annexin V-FITC/PI staining based flow cytometry
[10] = tested on: PC-3; assay: Induction of apoptosis in human PC-3 cells at IC50 concentration incubated for 48 hrs by Annexin V-FITC/PI staining based flow cytometry
[11] = tested on: DU-145; assay: Induction of cell cycle arrest in human DU-145 cells assessed as accumulation of cells at S phase incubated for 48 hrs by flow cytometry
[12] = tested on: DU-145; assay: Induction of cell cycle arrest in human DU-145 cells assessed as accumulation of cells at G2/M phase incubated for 48 hrs by flow cytometry
[13] = tested on: PC-3; assay: Induction of cell cycle arrest in human PC-3 cells assessed as accumulation of cells at S phase incubated for 48 hrs by flow cytometry
[14] = tested on: DU-145; assay: Induction of apoptosis in human DU-145 cells at IC50 concentration incubated for 48 hrs by Annexin V-FITC/PI staining based flow cytometry
[15] = tested on: DU-145; assay: Induction of necrosis in human DU-145 cells at IC50 concentration incubated for 48 hrs by Annexin V-FITC/PI staining based flow cytometry
[16] = tested on: HCT-116; assay: Induction of necrosis in human HCT-116 cells at IC50 concentration incubated for 48 hrs by Annexin V-FITC/PI staining based flow cytometry
[17] = tested on: MCF7; assay: Induction of necrosis in human MCF7 cells at IC50 concentration incubated for 48 hrs by Annexin V-FITC/PI staining based flow cytometry
[18] = tested on: LoVo; assay: Induction of cell cycle arrest in human LoVo cells assessed as accumulation of cells at G0/G1 phase incubated for 48 hrs by flow cytometry
[19] = tested on: HepG2; assay: Induction of necrosis in human HepG2 cells at IC50 concentration incubated for 48 hrs by Annexin V-FITC/PI staining based flow cytometry
[20] = tested on: MDA-MB-231; assay: Induction of cell cycle arrest in human MDA-MB-231 cells assessed as accumulation of cells at G0/G1 phase incubated for 48 hrs by flow cytometry
[21] = tested on: HCT-116; assay: Induction of apoptosis in human HCT-116 cells at IC50 concentration incubated for 48 hrs by Annexin V-FITC/PI staining based flow cytometry
[22] = tested on: HepG2; assay: Induction of cell cycle arrest in human HepG2 cells assessed as decrease in accumulation of cells at S phase incubated for 48 hrs by flow cytometry
[23] = tested on: HepG2; assay: Induction of late apoptosis in human HepG2 cells at IC50 concentration incubated for 48 hrs by Annexin V-FITC/PI staining based flow cytometry
[24] = tested on: MCF7; assay: Induction of cell cycle arrest in human MCF7 cells assessed as accumulation of cells at G0/G1 phase incubated for 48 hrs by flow cytometry
[25] = tested on: MCF7; assay: Induction of apoptosis in human MCF7 cells at IC50 concentration incubated for 48 hrs by Annexin V-FITC/PI staining based flow cytometry
[26] = tested on: HCT-116; assay: Induction of cell cycle arrest in human HCT-116 cells assessed as accumulation of cells at G0/G1 phase incubated for 48 hrs by flow cytometry
[27] = tested on: Hep 3B2; assay: Induction of early apoptosis in human Hep3B cells at IC50 concentration incubated for 48 hrs by Annexin V-FITC/PI staining based flow cytometry
[28] = tested on: Hep 3B2; assay: Induction of cell cycle arrest in human Hep3B cells assessed as increase in accumulation of cells at G2/M phase incubated for 48 hrs by flow cytometry
[29] = tested on: Hep 3B2; assay: Induction of cell cycle arrest in human Hep3B cells assessed as decrease in accumulation of cells at S phase incubated for 48 hrs by flow cytometry
[30] = tested on: Hep 3B2; assay: Induction of necrosis in human Hep3B cells at IC50 concentration incubated for 48 hrs by Annexin V-FITC/PI staining based flow cytometry
[31] = tested on: Hep 3B2; assay: Induction of cell cycle arrest in human Hep3B cells assessed as decrease in accumulation of cells at G0/G1 phase incubated for 48 hrs by flow cytometry

Measured: Activity

COc1cc(O)cc(/C=C/c2ccc(O)cc2)c1
active: [1] | [2] | [3] | [4] | [5] | [6] | [7] | [8]

COc1cc(/C=C/c2ccc(O)cc2)cc(O)c1C
active: [9] | [10] | [11] | [3] | [5] | [12] | [13] | [14] | [7] | [15]

COc1ccc([C@H]2c3c(/C=C/c4ccc(O)cc4)cc(OC)c(C)c3O[C@@H]3Oc4cc(O)cc(O)c4C(=O)[C@@H]32)cc1
active: [16] | [17] | [18] | [19] | [5] | [20] | [21] | [22] | [23] | [24] | [7] | [25] | [26]

O=C1/C(=C/c2ccc(O)cc2)COc2cc(O)cc(O)c21
active: [27] | [28] | [29] | [30] | [31]
